The text below walks through data of patent publication US20180153860A1, “METHODS OF DOSE ADMINISTRATION FOR TREATING OR PREVENTING COGNITIVE IMPAIRMENT USING INDANE ACETIC ACID DERIVATIVES” (T3D Therapeutics, Inc., priority 2016, published 2018).

The test system of experiment [1] is intracerebral (i.c.) Streptozotocin (STZ) rat model of Alzheimer's disease. Description: Intracerebral Streptozotocin rat model of Alzheimer's disease, Morris Water Maze testing. Type of experiment: in vivo, Long Evans rats. As to conditions: 0.25 mg/kg oral gavage every other day for 14 days; control and STZ rats; tested 11 days post-dosing. As to the method:
The experimental rat model of Alzheimer's disease used in Table 7 involves intracerebral (i.c.) treatment with Streptozotocin (STZ), to cause brain metabolic dysfunction and insulin resistance as occurs in human sporadic Alzheimer' disease, with minimal or no systemic side-effects. Long Evans 4-week old male and female rats (8-12/group) were anesthetized by intraperitoneal (i.p.) injection of ketamine (100 mg/kg) plus xylazine (10 mg/kg). After shaving and cleaning (betadine x2 followed by 70% ethanol) the scalps, the rats were positioned in a stereotaxic frame and a midline incision was made. With subcutaneous tissue and skeletal muscle separated and retracted with small surgical hooks, the bregma and lambda areas were cleaned with 3% H2O2 soaked cotton swabs. […]
T3D-959 administration (0.25 mg/kg) to control and STZ rats was by oral gavage every other day for a period of 14-days. […] The latency to locate the platform was measured. Spatial memory and orientation were assessed by requiring the rat to locate the hidden platform from different entry points in the maze. […]
Data were analyzed by first calculating area under curves for each set of 3 trials, then averaging the AUC results within-group. […] Data were analyzed by 1-way ANOVA with Fisher post-tests. […]

For experiment [2], the system named is mild to moderate severity Alzheimer's patients (MMSE=14-26). Description: ADAS-cog11 score change in Alzheimer's patients after 14-day treatment. Type of experiment: in vivo, human. As to the method: ADAS-cog11 score change from day 1 to day 14 (D1-D14), the end of 2-week treatment is compared to the ADAS-cog 1 from day 1 to day 21 (D1-D21), 7-days post treatment follow-up. With ADAS-cog 1 test scoring a greater negative score denotes greater cognitive improvement. Drug treatment of mild to moderate severity Alzheimer's patients (MMSE=14-26) with T3D-959 was for 14 days q.d. at 3 mg, 10 mg, 30 mg or 90 mg (n=number of subjects evaluable at each dose).

For the compound `CCc1oc(-c2ccc(OC)cc2)nc1CCOc1ccc2c(c1)CC[C@H]2CC(=O)[O-].[Na+]` [Example T3D-959], in experiment [1], the “Morris Water Maze latency to locate the platform (spatial localization and memory, AUC of trials)” value is recorded as “benefited control as well as STZ-exposed rats”. In addition, the “subjects who exhibited an improved ADAS-cog11 test score” value in experiment [2] (10 mg cohort, 14 days q.d.) is 5 of 9. Also, the “ADAS-cog11 score change D1-D14 compared to D1-D21” value in experiment [2] (14 days q.d. at 3 mg, 10 mg, 30 mg or 90 mg, D21 = 7-days post treatment follow-up) is “cognitive improvement lasting beyond the end of treatment”.
